Measured values published in patent US20070185176A1, “Heparanase inhibitors and uses thereof” (Insight Bioharmaceuticals Ltd., priority 2004, published 2007).

Target: T1, human recombinant heparanase (h-hpa) (Homo sapiens, UniProt Q9Y251)
T1 sequence (Q9Y251 158-543 limits assumed): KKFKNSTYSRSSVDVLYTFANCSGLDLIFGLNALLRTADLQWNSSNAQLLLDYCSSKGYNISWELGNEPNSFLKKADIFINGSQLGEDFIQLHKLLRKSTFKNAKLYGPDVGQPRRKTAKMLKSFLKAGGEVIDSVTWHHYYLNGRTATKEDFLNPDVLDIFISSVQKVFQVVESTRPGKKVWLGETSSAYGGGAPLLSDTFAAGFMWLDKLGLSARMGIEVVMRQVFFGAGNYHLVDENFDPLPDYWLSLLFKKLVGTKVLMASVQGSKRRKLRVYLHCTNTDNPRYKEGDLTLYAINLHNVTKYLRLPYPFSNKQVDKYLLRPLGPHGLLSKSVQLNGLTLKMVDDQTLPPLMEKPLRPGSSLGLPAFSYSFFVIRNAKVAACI
T1 sequence (Q9Y251 36-109 limits assumed): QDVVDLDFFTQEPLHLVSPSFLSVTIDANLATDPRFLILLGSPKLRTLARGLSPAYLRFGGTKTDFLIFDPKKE
Experiment: In vitro dimethylmethylene blue (DMB) assay for heparanase activity
Experimental: (a) In Vitro Dimethylmethylene Blue (DMB) Assay for Heparanase Activity
Heparin Sepharose CL-6B beads were added up to the top of the wells of a multiscreen column loader (Millipore). A 96-well multiscreen plate containing 0.65 μm hydrophilic, low protein binding, Durapore membrane (Millipore) was placed, upside down, on top of the multiscreen column loader. The column loader and the multiscreen plate were held together, turned over, and the beads were uniformly transferred from the column loader to the multiscreen plate (Millipore, MADVM 650). Double-distilled water (DDW) was then added to the beads, which were allowed to swell for one minute, and then washed (three times) with DDW under vacuum. Heparin concentration was estimated to be 10 μM/well.
To each well, phosphate-buffered saline (PBS) containing 1% bovine serum albumin (BSA; 70 μl/well) and DMB (32 mg of DMB were dissolved in 5 ml ethanol, diluted to 1 liter with formate buffer containing 4 g sodium formate and 4 ml formic acid; 120 μl/well) were added. Color was developed after 5 minutes, and the absorbance of the samples was determined using a microplate reader (Spectra Max, Molecular Devices) at 530 nm with 570 nm as reference. The absorbance correlated to heparanase activity. As a control, heparanase was added to the heparin Sepharose swollen beads in the multiscreen plate and the heparanase reaction products were filtered immediately thereafter and the absorbance of these control samples was subtracted from all other samples.
The cell extracts were centrifuged and resuspended in 20 mM phosphate citrate buffer, pH 5.4 containing 50 mM NaCl. The cells were lysed by three cycles of freezing and thawing. The cell lysates were centrifuged (10000×g for 5 min), supernatants were collected and then assayed for heparanase activity using the DMB assay.
The partially purified human recombinant heparanase or the crude cell extracts expressing either human or mouse recombinant heparanase were added for a 3-hour incubation and the reaction continued as described above. Absorbance of the developing color was measured as described above.

IC50 [nM] | Compound
1500 | CCCCCCCCCCCCCCCCCCN1/C(=C/C=C/c2sc3ccccc3[n+]2CCCCCCCCCCCCCCCCCC)Sc2ccccc21 [Compound 67]
330 | CCCCCCCCCCCCCCCCCCNC(=O)C1CC(=O)N(c2ccc(Oc3ccc(C(=O)O)cc3)c(S(=O)(=O)O)c2)C1 (stereo not drawn) [Compound 107, 2-(4-carboxy-phenoxy)-5-(4-octadecyl-carbamoyl-2-oxo-pyrrolidin-1-yl)-benzene sulfonic acid]
7000 | CCCCCCCCCCCCCCCCCCNC(=O)Nc1ccc(S(=O)(=O)O)cc1 [Compound 70]
730 | CCCCCCCCCCCCCCC(=O)NC1=NN(c2ccc(Oc3ccccc3)c(S(=O)(=O)O)c2)C(=O)C1 [Compound 84]
1600 | CCCCCCCCCCCCCCCC1=CN(c2ccc(S(=O)(=O)O)cc2)C(=O)C1 [Compound 75]
270 | CCCCCCCCCCCC1OC1CCCCC(=O)NC1=NN(c2ccc(Oc3ccccc3)c(S(=O)(=O)O)c2)C(=O)C1 (stereo not drawn) [Compound 100]
340 | CCCCCCCCCCCCCCCCCCN(C)c1ccc(S(=O)(=O)O)cc1NC(=O)c1cc(O)c2ccccc2c1 [Compound 77]
1000 | CCCCCCCCCCCC1OC1CCCCC(=O)Nc1cc(C(=O)O)ccc1Oc1cc(C(N)=O)cc(C(=O)O)c1 (stereo not drawn) [Compound 95]
860 | CCCCCCCCCCCCCCCCCCNC(=O)C1CC(=O)N(c2ccc(Oc3ccc(Br)cc3)c(S(=O)(=O)O)c2)C1 (stereo not drawn) [Compound 105]
400 | CCCCCCCCCCC/C=C\CCCCC(=O)NC1=NN(c2ccc(Oc3ccccc3)c(S(=O)(=O)O)c2)C(=O)C1 [Compound 85]
1600 | CCCCCCCCCCCC1OC1CCCCC(=O)Nc1cc(C(=O)O)ccc1Oc1cc(C(N)=O)cc(C(N)=O)c1 (stereo not drawn) [Compound 96]
1000 | CCCCCCCCCCCCCCCCCCN1/C(=C/C=C/c2oc3ccccc3[n+]2CCCCCCCCCCCCCCCCCC)Oc2ccccc21 [Compound 66]
3000 | CCCCCCCCCCCCCCCCOc1ccc(/C(=N\NS(=O)(=O)c2cc(C(=O)O)cc(C(=O)O)c2)N2CCCCC2)cc1OC [Compound 76]
2650 | CCCCCCCCCCCC(=O)NC1=NN(c2ccc(Oc3ccccc3)c(S(=O)(=O)O)c2)C(=O)C1 [Compound 71]
400 | CCCCCCCCCCCC1OC1CCCCC(=O)Nc1cc(C(=O)O)ccc1Oc1cc(C(=O)O)cc(C(=O)O)c1 (stereo not drawn) [Compound 87]
16800 | CCCCCCCCCCCCCCCCCCNc1ccc(C(=O)O)cc1NC(=O)c1cc(/N=N/c2ccc(NS(=O)(=O)c3ccc(C)cc3)cc2C)c2ccccc2c1O [Compound 63]
8500 | CCCCCCCCCCCCCCCCCC/C=C/c1cc(C(=O)O)c2oc3c(C(=O)O)cccc3c2c1 [Compound 90]

IC50 [nM] | Compound
19000 | CCCCCCCCCCCCCCCC(=O)NC(CN1CCOCC1)C(O)c1ccccc1 (stereo not drawn) [Compound 74]
18000 | C=CCCCCCCCCC(=O)CCCCCC(=O)Nc1cc(C(=O)O)ccc1Oc1cc(C(=O)O)cc(C(=O)O)c1 [Compound 94]
9150 | CCCCCCCCCCCC(Cl)C(O)CCCCC(=O)Nc1cc(C(=O)O)ccc1Oc1cc(C(=O)O)cc(C(=O)O)c1 (stereo not drawn) [Compound 93]
1500 | CCCCCCCCCCCCC/C=C/CC(O)(C(=O)Cc1cc(C(=O)O)ccc1Oc1cc(C(=O)O)cc(C(=O)O)c1)C(F)(F)F (stereo not drawn) [Compound 98]
2000 | CCCCCCCCCCC/C=C\CCCCC(=O)Nc1cc(C(=O)O)ccc1Oc1cc(C(=O)O)cc(C(=O)O)c1 [Compound 86]
4800 | CCCCCCCCCCCCCCCCn1c(=N)n(CC(O)c2ccc(OC)c(OC)c2)c2ccccc21 (stereo not drawn) [Compound 65]
7700 | CCCCCCCCCCCCCCCCCCNC(=O)C1CC(=O)N(c2ccc(Oc3ccc(S(=O)(=O)O)cc3)cc2)C1 (stereo not drawn) [Compound 103]
300 | CCCCCCCCCCCCCCCCCCNC(=O)C1CC(=O)N(c2ccc(Oc3ccc(C(N)=O)cc3)c(S(=O)(=O)O)c2)C1 (stereo not drawn) [Compound 106, 2-(4-amido-phenoxy)-5-(4-octadecyl-carbamoyl-2-oxo-pyrrolidin-1-yl)-benzene sulfonic acid]
400 | CCCCCCCCCCCCCC(=O)NC1=NN(c2ccc(Oc3ccccc3)c(S(=O)(=O)O)c2)C(=O)C1 [Compound 83]
630 | CCCCCCCCCCCCCCCCCCn1c(-c2ccccc2)nc2cc(S(=O)(=O)O)ccc21 [Compound 102]
11600 | CCCCCCCCCCCCCCCCCCN(C)c1ccc(C(=O)O)cc1NC(=O)c1cc(/N=N/c2cc(C(=O)OC)ccc2O)c2ccccc2c1O [Compound 62]
18000 | O=C(O)CCCCCCCCCCN1C(=O)/C(=C/c2cccc(Br)c2)SC1=S [Compound 81]
5500 | CCCCCCCCCCCCCCCCS(=O)(=O)c1ccc(S(=O)(=O)O)cc1C(=O)O [Compound 89]
16000 | CCCCCCCCCCCC1OC1CCCCC(=O)On1nnc2ccccc2c1=O (stereo not drawn) [Compound 99]
2000 | CCCCCCCCCCCCCCCCCC(=O)Nc1cc(C(=O)O)ccc1Oc1cc(C(=O)O)cc(C(=O)O)c1 [Compound 61]
470 | CCCCCCCCCCCCCCCCCCNC(=O)C1CC(=O)N(c2ccc(Oc3ccc(S(=O)(=O)O)cc3)c(S(=O)(=O)O)c2)C1 (stereo not drawn) [Compound 104]
4400 | CCCCCCCCCCCCCCCCOc1ccc(S(=O)(=O)O)cc1C(=O)O [Compound 88]

More lines, now with the values behind:

Compound | IC50 [nM]
CCCCCCCCCCCCCCCCCCN(C)c1ccc(S(=O)(=O)O)cc1NC(=O)c1cc(/N=N/c2cc(NS(=O)(=O)c3ccc(C)cc3)ccc2Cl)c2ccccc2c1O [Compound 52] | 740
CCCCCCCCCCCCCCCCCC1=NN(c2ccc(Oc3ccccc3)c(S(=O)(=O)O)c2)C(=O)C1/N=N/c1ccc(O)c(C(=O)O)c1 (stereo not drawn) [Compound 21] | 310
CCCCCCCCCCCCCCCCCC(=O)Nc1ccc(NC(=O)c2cc(/N=N/c3cc(C(=O)O)c(O)cc3O)c3ccccc3c2O)cc1S(=O)(=O)O [Compound 40] | 230
CCCCCCCCCCCCCCCCCC(=O)Nc1ccc(C(=O)NC2=NN(c3ccc(Oc4ccccc4)c(S(=O)(=O)O)c3)C(=O)C2/N=N/c2ccc(NS(=O)(=O)c3ccc(C)cc3)cc2)cc1 (stereo not drawn) [Compound 27] | 270
CCCCCCCCCCCCCCCCCC1=NN(c2ccc(Oc3ccccc3)c(S(=O)(=O)O)c2)C(=O)C1/N=N/c1ccccc1N(C)C (stereo not drawn) [Compound 5] | 220
CCCCCCCCCCCCCCCCn1c(/N=C/c2cc(Cl)cc(Br)c2O)nc2ccccc21 [Compound 58] | 3000
CCCCCCCCCCCCCCCCCCN(C)c1ccc(C(=O)O)cc1NC(=O)c1cc(/N=N/c2cc(C(=O)O)ccc2O)c2ccccc2c1O [Compound 50] | 4500
C=CCCCCCCCCCCCCCCC(CC(=O)NC1=NN(c2c(Cl)cc(Cl)cc2Cl)C(=O)C1)C(=O)O (stereo not drawn) [Compound 56] | 6800
CCCCCCCCCCCCCCCCS(=O)(=O)c1ccc(N2N=C(NC(=O)c3ccccc3S(=O)(=O)O)C(/N=N\c3ccc(O)cc3Cl)C2=O)cc1 (stereo not drawn) [Compound 54] | 200
CCCCCCCCCCCCCCCCCCC(=O)CC(=O)Nc1ccc(Oc2ccc(C(=O)O)cc2)c(C(=O)O)c1 [Compound 51] | 3000
CCCCCCCCCCCCCCCCCC(=O)NC1=NN(c2ccc(Oc3ccccc3)c(S(=O)(=O)O)c2)C(=O)C1/N=N/c1ccc(O)c(C(=O)O)c1 (stereo not drawn) [Compound 20] | 190
CCCCCCCCCCCCCCCCCCN(C)c1ccc(S(=O)(=O)O)cc1NC(=O)c1cc(/N=N/c2ccc(NS(=O)(=O)c3ccc(C)cc3)cc2)c2ccccc2c1O [Compound 45] | 500
CCCCCCCCCCCCCCCCCCN(C)c1ccc(S(=O)(=O)O)cc1NC(=O)c1cc(S(=O)(=O)O)c2ccccc2c1O [Compound 41] | 490
CCCCCCCCCCCCCCCCCCOc1ccc(S(=O)(=O)O)cc1NC(=O)c1cc(/N=N/c2ccccc2C(=O)O)c2ccccc2c1O [Compound 49] | 2700
CCCCCCCCCCCCCCCCCCOc1ccc(C(=O)CC(=O)Nc2ccc(Sc3ccccc3C(=O)O)c(C(=O)O)c2)cc1 [Compound 44] | 210
CCCCCCCCCCCCCCCCCC1=NN(c2ccc(Oc3ccccc3)c(S(=O)(=O)O)c2)C(=O)C1/N=N/c1ccc(NC(C)=O)cc1 (stereo not drawn) [Compound 26] | 130
CCCCCCCCCCCCCCCCCC1=NN(c2ccc(Oc3ccccc3)c(S(=O)(=O)O)c2)C(=O)C1/N=N/c1cccc(C(=O)O)c1 (stereo not drawn) [Compound 11] | 180
CCCCCCCCCCCCCCCCCC1=Nn2c(nc3cc(S(=O)(=O)O)ccc32)C1S(=O)(=O)O (stereo not drawn) [Compound 35] | 1340
CCCCCCCCCCCCCCCCCCN(C)c1ccc(S(=O)(=O)O)cc1NC(=O)c1cc(/N=N/c2cc(-c3ccccc3)ccc2O)c2ccccc2c1O [Compound 34] | 310
CCCCCCCCCCCCCCCCCC1=NN(c2ccc(Oc3ccccc3)c(S(=O)(=O)O)c2)C(=O)C1Br (stereo not drawn) [Compound 6] | 250
CCCCCCCCCCCCCCCCn1c(/N=C/c2c(O)ccc3cc([N+](=O)[O-])ccc23)nc2ccccc21 [Compound 57] | 7800
CCCCCCCCCCCCCCCCCC1=NN(c2ccc(Oc3ccccc3)c(S(=O)(=O)O)c2)C(=O)C1/N=N/c1ccc(OC)cc1 (stereo not drawn) [Compound 7] | 240
CCCCCCCCCCCCCCCCCC1=NN(c2ccc(Oc3ccccc3)c(S(=O)(=O)O)c2)C(=O)C1/N=N/c1cc(OC)ccc1OC (stereo not drawn) [Compound 8] | 210
CCCCCCCCCCCCCCCCCCOc1ccc(S(=O)(=O)N/N=C2\N(CC)c3ccccc3C2(C)C)cc1C(=O)O [Compound 48] | 950
CCCCCCCCCCCCCCCCCCOc1ccc(S(=O)(=O)Nc2cccc(S(=O)(=O)N/N=C3\N(C)c4ccccc4C3(C)C)c2)cc1C(=O)O [Compound 59] | 490
CCCCCCCCCCCCCCCCCC1=NN(c2ccc(Oc3ccccc3)c(S(=O)(=O)O)c2)C(=O)C1/N=N/c1ccc(S(=O)(=O)O)cc1 (stereo not drawn) [Compound 25] | 270
